Assay results taken from US11866518B2, “Bicyclic peptide ligands specific for TSLP” (BicycleTx Limited, priority 2020, dated 2024).
*1 amine or outer side, *2 acyl side, *3 side chain or, on linkers, in order; H or OH if unused. Where a SMILES comes first, the peptide text is derived from it. Bridges are numbered along the chain shown (N, C = ends). [ ]: non-standard residue; d: D form. TATA = O=C(CC[*:1])N1CN(C(=O)CC[*:2])CN(C(=O)CC[*:3])C1; Dap = NC[C@H](N)C(=O)O

Target: TSLP (Homo sapiens, UniProt Q969D9)
Assay: Human TSLP Surface Plasmon Resonance (SPR) binding assay
Set-up: The resulting construct spCD33-6×HN-TEV-hTSLP(29-159)-Avi; 6xHN tag with TEV site (N, cleaved yes); made in house; host or cells: Expi293F cells
Conditions: biotinylated human TSLP immobilized on streptavidin chip; 20° C.; steady-state or kinetic 1:1 fit; read-out: hTSLP SPR Kd

TSLP, sequence (Q969D9 29-159): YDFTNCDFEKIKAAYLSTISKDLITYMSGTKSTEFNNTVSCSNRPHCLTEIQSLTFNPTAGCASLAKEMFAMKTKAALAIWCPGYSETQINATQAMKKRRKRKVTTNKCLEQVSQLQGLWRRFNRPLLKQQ

| Structure (SMILES) | Kd [µM] |
| --- | --- |
| CC(=O)N[C@H]1CSCCC(=O)N2CN3CN(C2)C(=O)CCSC[C@H](NC(=O)[C@H](CC(=O)O)NC(=O)[C@H](CCC(=O)O)NC(=O)[C@H](CC(C)C)NC(=O)[C@H](Cc2c[nH]c4ccccc24)NC(=O)[C@H](CCC(N)=O)NC1=O)C(=O)N[C@@H](Cc1c[nH]c2ccccc12)C(=O)N[C@@H](CCONC(=N)N)C(=O)NCC(=O)N[C@@H](Cc1ccccc1)C(=O)N[C@H](C(N)=O)CSCCC3=O [Example 131, Ac-(SEQ ID NO: 92)] | 0.4 |
| CC(=O)N[C@H]1CSCCC(=O)N2CN3CN(C2)C(=O)CCSC[C@H](NC(=O)[C@H](CC(=O)O)NC(=O)[C@H](CCC(=O)O)NC(=O)[C@H](CC(C)C)NC(=O)[C@H](Cc2c[nH]c4ccccc24)NC(=O)[C@H](CCC(N)=O)NC1=O)C(=O)N[C@@H](Cc1c[nH]c2ccccc12)C(=O)N[C@@H](CCCNC(=N)N)C(=O)NCC(=O)N[C@@H](Cc1cccs1)C(=O)N[C@H](C(N)=O)CSCCC3=O [Example 135, Ac-(SEQ ID NO: 96)] | 0.49 |
| CC(C)C[C@@H]1NC(=O)[C@H](Cc2c[nH]c3ccccc23)NC(=O)[C@H](CC(=O)O)NC(=O)[C@@H](NC(=O)[C@H](C)N)CSCCC(=O)N2CN3CN(C2)C(=O)CCSC[C@H](NC(=O)[C@H](CC(=O)O)NC(=O)[C@H](CC(=O)O)NC1=O)C(=O)N[C@@H](Cc1c[nH]c2ccccc12)C(=O)N[C@@H](CCCCN)C(=O)NCC(=O)N[C@@H](Cc1ccccc1)C(=O)N[C@H](C(=O)N[C@@H](C)C(N)=O)CSCCC3=O [Example 141, A-(SEQ ID NO: 100)-A] (H-ACDWLDDCWKGFCA-NH2; linker 2-8-13 via TATA; N-terminus and C-terminus assumed) | 0.6 |
| COc1ccc(C[C@@H]2NC(=O)CNC(=O)[C@H](CCCNC(=N)N)NC(=O)[C@H](Cc3c[nH]c4ccccc34)NC(=O)[C@@H]3CSCCC(=O)N4CN(CN(C4)C(=O)CCSC[C@H](NC(C)=O)C(=O)N[C@@H](CCC(N)=O)C(=O)N[C@@H](Cc4c[nH]c5ccccc45)C(=O)N[C@@H](CC(C)C)C(=O)N[C@@H](CCC(=O)O)C(=O)N[C@@H](CC(=O)O)C(=O)N3)C(=O)CCSC[C@@H](C(N)=O)NC2=O)cc1 [Example 142, Ac-(SEQ ID NO: 101)] | 0.71 |
| CC(=O)N[C@H]1CSCCC(=O)N2CN3CN(C2)C(=O)CCSC[C@H](NC(=O)[C@H](CC(=O)O)NC(=O)[C@H](CCC(=O)O)NC(=O)[C@H](CC(C)C)NC(=O)[C@H](Cc2c[nH]c4ccccc24)NC(=O)[C@H](CCC(N)=O)NC1=O)C(=O)N[C@@H](Cc1c[nH]c2ccccc12)C(=O)N[C@@H](CCCNC(=N)N)C(=O)NCC(=O)N[C@@H](Cc1cccc(Br)c1)C(=O)N[C@H](C(N)=O)CSCCC3=O [Example 143, Ac-(SEQ ID NO: 102)] | 0.75 |
| CC(=O)N[C@H]1CSCCC(=O)N2CN3CN(C2)C(=O)CCSC[C@H](NC(=O)[C@H](CC(=O)O)NC(=O)[C@H](CCC(=O)O)NC(=O)[C@H](CC(C)C)NC(=O)[C@H](Cc2c[nH]c4ccccc24)NC(=O)[C@H](CCC(N)=O)NC1=O)C(=O)N[C@@H](Cc1c[nH]c2ccccc12)C(=O)N[C@@H](CCCNC(=N)N)C(=O)NCC(=O)N[C@@H](Cc1ccccn1)C(=O)N[C@H](C(N)=O)CSCCC3=O [Example 146, Ac-(SEQ ID NO: 105)] | 0.91 |
| CC(=O)N[C@H]1CSCCC(=O)N2CN3CN(C2)C(=O)CCSC[C@H](NC(=O)[C@H](CC(=O)O)NC(=O)[C@H](CCC(=O)O)NC(=O)[C@H](CC[S+](C)[O-])NC(=O)[C@H](Cc2c[nH]c4ccccc24)NC(=O)[C@H](CCC(N)=O)NC1=O)C(=O)N[C@@H](Cc1c[nH]c2ccccc12)C(=O)N[C@@H](CCCNC(=N)N)C(=O)NCC(=O)N[C@@H](Cc1ccccc1)C(=O)N[C@H](C(N)=O)CSCCC3=O (stereo partly drawn) [Example 147, Ac-(SEQ ID NO: 106)] | 0.94 |
| CC(=O)N[C@H]1CSCCC(=O)N2CN3CN(C2)C(=O)CCSC[C@H](NC(=O)[C@H](CC(=O)O)NC(=O)[C@H](CCC(=O)O)NC(=O)[C@H](CC(C)C)NC(=O)[C@H](Cc2c[nH]c4ccccc24)NC(=O)[C@H](CCC(N)=O)NC1=O)C(=O)N[C@@H](Cc1c[nH]c2ccccc12)C(=O)N[C@@H](CCCNC(=N)N)C(=O)NCC(=O)N[C@@H](CCc1ccccc1)C(=O)N[C@H](C(N)=O)CSCCC3=O [Example 148, Ac-(SEQ ID NO: 107)] | 1.1 |
| CC(=O)N[C@H]1CSCCC(=O)N2CN3CN(C2)C(=O)CCSC[C@H](NC(=O)[C@H](CC(=O)O)NC(=O)[C@H](CCC(=O)O)NC(=O)[C@H](CC(C)C)NC(=O)[C@H](Cc2c[nH]c4ccccc24)NC(=O)[C@H](CCC(N)=O)NC1=O)C(=O)N[C@@H](Cc1c[nH]c2ccccc12)C(=O)N[C@@H](C)C(=O)NCC(=O)N[C@@H](Cc1ccccc1)C(=O)N[C@H](C(N)=O)CSCCC3=O [Example 149, Ac-(SEQ ID NO: 108)] | 1.1 |
| CC[C@H](C)[C@@H]1NC(=O)[C@H]([C@@H](C)O)NC(=O)[C@@H](NC(=O)[C@H](C)N)CSCCC(=O)N2CN3CN(C2)C(=O)CCSC[C@H](NC(=O)[C@H](CC(=O)O)NC(=O)[C@H](CCC(=O)O)NC(=O)[C@H](CC(C)C)NC1=O)C(=O)N[C@@H](Cc1c[nH]c2ccccc12)C(=O)N[C@@H](CCSC)C(=O)NCC(=O)N[C@@H](Cc1ccccc1)C(=O)N[C@H](C(=O)N[C@@H](C)C(N)=O)CSCCC3=O [Example 150, A-(SEQ ID NO: 109)-A] | 1.5 |
| CC(=O)N[C@H]1CSCCC(=O)N2CN3CN(C2)C(=O)CCSC[C@H](NC(=O)[C@H](CC(=O)O)NC(=O)[C@H](CCC(=O)O)NC(=O)[C@H](CC(C)C)NC(=O)[C@H](Cc2c[nH]c4ccccc24)NC(=O)[C@H](CCC(N)=O)NC1=O)C(=O)N[C@@H](Cc1c[nH]c2ccccc12)C(=O)N[C@@H](CCCNC(=N)N)C(=O)NCC(=O)N[C@@H](Cc1c(F)c(F)c(F)c(F)c1F)C(=O)N[C@H](C(N)=O)CSCCC3=O [Example 153, Ac-(SEQ ID NO: 112)] | 2.7 |
| CC(=O)N[C@H]1CSCCC(=O)N2CN3CN(C2)C(=O)CCSC[C@H](NC(=O)[C@H](CC(=O)O)NC(=O)[C@H](CCC(=O)O)NC(=O)[C@H](CC(C)C)NC(=O)[C@H](Cc2c[nH]c4ccccc24)NC(=O)[C@H](CCC(N)=O)NC1=O)C(=O)N[C@@H](Cc1c[nH]c2ccccc12)C(=O)N[C@@H](CN)C(=O)NCC(=O)N[C@@H](Cc1ccccc1)C(=O)N[C@H](C(N)=O)CSCCC3=O [Example 155, Ac-(SEQ ID NO: 114)] | 3.2 |
| CC(C)C[C@@H]1NC(=O)[C@H](Cc2c[nH]c3ccccc23)NC(=O)[C@H](CCC(N)=O)NC(=O)[C@@H](N)CSCCC(=O)N2CN3CN(C2)C(=O)CCSC[C@H](NC(=O)[C@H](CC(=O)O)NC(=O)[C@H](CCC(=O)O)NC1=O)C(=O)N[C@@H](Cc1c[nH]c2ccccc12)C(=O)N[C@@H](CN)C(=O)NCC(=O)N[C@@H](Cc1ccccc1)C(=O)N[C@H](C(N)=O)CSCCC3=O [Example 156, (SEQ ID NO: 114)] | 3.3 |
| CC(=O)N[C@H]1CSCCC(=O)N2CN3CN(C2)C(=O)CCSC[C@H](NC(=O)[C@H](CC(=O)O)NC(=O)[C@H](CCC(=O)O)NC(=O)[C@H](CC(C)C)NC(=O)[C@H](Cc2c[nH]c4ccccc24)NC(=O)[C@H](CCC(N)=O)NC1=O)C(=O)N[C@@H](Cc1c[nH]c2ccccc12)C(=O)N[C@@H](CCCNC(=N)N)C(=O)NCC(=O)N[C@@H](Cc1ccncc1)C(=O)N[C@H](C(N)=O)CSCCC3=O [Example 157, Ac-(SEQ ID NO: 115)] | 3.9 |
| CC(=O)N[C@H]1CSCCC(=O)N2CN3CN(C2)C(=O)CCSC[C@H](NC(=O)[C@H](CC(=O)O)NC(=O)[C@H](CCC(=O)O)NC(=O)[C@H](CC(C)C)NC(=O)[C@H](Cc2c[nH]c4ccccc24)NC(=O)[C@H](CCC(N)=O)NC1=O)C(=O)N[C@@H](Cc1c[nH]c2ccccc12)C(=O)N[C@@H](CCCNC(=N)N)C(=O)NCC(=O)N[C@@H](Cc1cccnc1)C(=O)N[C@H](C(N)=O)CSCCC3=O [Example 158, Ac-(SEQ ID NO: 116)] | 5.4 |
| CC(=O)N[C@H]1CSCCC(=O)N2CN3CN(C2)C(=O)CCSC[C@H](NC(=O)[C@H](CC(N)=O)NC(=O)[C@H](CCC(=O)O)NC(=O)[C@H](CC(C)C)NC(=O)[C@H](Cc2c[nH]c4ccccc24)NC(=O)[C@H](Cc2c[nH]cn2)NC1=O)C(=O)N[C@@H](Cc1c[nH]c2ccccc12)C(=O)N[C@@H](CN)C(=O)NCC(=O)N[C@@H](Cc1ccccc1)C(=O)N[C@H](C(N)=O)CSCCC3=O [Example 159, Ac-(SEQ ID NO: 117)] (Ac-CHWLENCW[Dap]GFC-NH2; linker 1-7-12 via TATA; C-terminus assumed) | 5.6 |
| CC(C)C[C@@H]1NC(=O)[C@H](CO)NC(=O)[C@H](CCC(=O)O)NC(=O)[C@@H](NC(=O)[C@H](C)N)CSCCC(=O)N2CN3CN(C2)C(=O)CCSC[C@H](NC(=O)[C@H](CO)NC(=O)[C@H](Cc2c[nH]c4ccccc24)NC(=O)[C@@H]2CCCN2C(=O)[C@H](CC(=O)O)NC1=O)C(=O)N1CCC[C@H]1C(=O)N[C@@H](C(C)C)C(=O)N[C@@H](Cc1c[nH]c2ccccc12)C(=O)N[C@@H](Cc1c[nH]c2ccccc12)C(=O)N[C@@H](CCCNC(=N)N)C(=O)N[C@H](C(=O)N[C@@H](C)C(N)=O)CSCCC3=O [Example 161, A-(SEQ ID NO: 119)-A] (H-ACESLDPWSCPVWWRCA-NH2; linker 2-10-16 via TATA; N-terminus and C-terminus assumed) | 0.89 |
| CC(C)C[C@@H]1NC(=O)[C@H](CO)NC(=O)[C@@H]2CCCN2C(=O)[C@@H](NC(=O)[C@H](C)N)CSCCC(=O)N2CN3CN(C2)C(=O)CCSC[C@H](NC(=O)[C@H]([C@@H](C)O)NC(=O)[C@H](Cc2c[nH]c4ccccc24)NC(=O)[C@@H]2CCCN2C(=O)[C@H](CC(=O)O)NC1=O)C(=O)N[C@@H](CCC(N)=O)C(=O)N[C@@H](CO)C(=O)N[C@@H](Cc1c[nH]c2ccccc12)C(=O)N[C@@H](Cc1ccc(O)cc1)C(=O)N[C@@H](CCC(=O)O)C(=O)N[C@H](C(=O)N[C@@H](C)C(N)=O)CSCCC3=O [Example 162, A-(SEQ ID NO: 120)-A] | 1.5 |
